In patent US20060014812A1, “Use of estrogen related receptor-modulating aryl ethers” (priority 2004, published 2006) one finds IC50 and Kd data, which are given here for eleven compounds.

One experiment has as its target T1, ERR-α (Homo sapiens, UniProt P11474).
T1 construct: expressed in transfected cells; host or cells: HEK293E
T1 sequence (P11474 1-423): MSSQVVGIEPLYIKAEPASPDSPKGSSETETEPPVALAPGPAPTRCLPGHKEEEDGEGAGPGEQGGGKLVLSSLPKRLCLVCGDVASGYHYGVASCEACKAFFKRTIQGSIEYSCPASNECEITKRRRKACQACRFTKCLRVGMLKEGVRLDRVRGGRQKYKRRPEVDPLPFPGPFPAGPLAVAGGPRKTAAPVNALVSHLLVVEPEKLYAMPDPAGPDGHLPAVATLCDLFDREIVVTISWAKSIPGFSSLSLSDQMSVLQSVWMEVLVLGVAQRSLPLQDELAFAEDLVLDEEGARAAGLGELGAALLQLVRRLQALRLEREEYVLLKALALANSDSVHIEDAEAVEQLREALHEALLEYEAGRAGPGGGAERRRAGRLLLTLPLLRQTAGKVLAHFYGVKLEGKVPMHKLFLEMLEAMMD
Nature of the experiment: 2-Hybrid cell based luciferase reporter assay (pBIND-Gal4-ERR-α / pACT-SRC2) in HEK293E cells. The conditions noted are these: 24 hours compound treatment, firefly luciferase normalized to Renilla, average from three independent experiments. As for the experimental part:
A cell based reporter assay was also used to determine the functional response of the ERR-α hits. Transfections were performed in HEK293E cells that were maintained in DMEM supplemented in glutamine and 10% FBS. Co-transfections of 4 μg of a luciferase reporter plasmid and 4 μg of each pBIND-Gal4-ERR-α and pACT-SRC2 plasmids per T-75 flask were done using Lipofectamine as per manufacturers instructions. Twenty-four hours post-transfection, the cells were seeded in 96-well plates at density of 50,000 cells per well in assay media (DMEM phenol free, 5% charcoal stripped FBS). The cells were allowed to adhere to the bottom of the wells (approximately 5 hours post-seeding) and the compounds were dosed and the final concentration of DMSO was kept below 0.3%. After 24 hours of compound treatment cells were lysed and treated with the Promega Dual-Glo system. Firefly Luciferase activity was read using a luminescence plate reader, and data were normalized against Renilla luciferase activity. Data were fitted using subroutines available from GraphPad. The reported IC50 values shown in the table below are the average from three independent experiments for the compounds tested.

Experiment [1] addresses T2, ligand binding domain of ERR-α (aa 183-424) (Homo sapiens, UniProt P11474).
T2 construct: His tag (N); thrombin cleavage site (N); made in house; host or cells: E. coli BL21(DE3+)
T2 sequence (P11474 183-423 limits assumed): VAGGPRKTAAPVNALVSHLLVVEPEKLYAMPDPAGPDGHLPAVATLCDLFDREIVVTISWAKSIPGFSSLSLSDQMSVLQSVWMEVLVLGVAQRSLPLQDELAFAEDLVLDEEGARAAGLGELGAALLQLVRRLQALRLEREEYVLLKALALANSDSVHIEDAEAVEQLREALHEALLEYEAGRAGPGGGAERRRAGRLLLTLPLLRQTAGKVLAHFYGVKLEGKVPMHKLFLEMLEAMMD
Briefly: ThermoFluor thermal-shift binding affinity screen against ERR-α ligand binding domain. The conditions noted are these: 100 μM test compound, 0.1 mg/mL ERR-α, pH 7.6, Kd estimated from melting temperature shift at reference temperature, read-out: TF Kd. As for the experimental part:
The ligand binding domain of ERR-α (aa 183-424) was subcloned in frame with the N-terminal His tag and the cleavable thrombin site in pET28. The protein was expressed in BL21(DE3^+) following induction with 100 μM IPTG at 16° C. Cells were harvested after 16 hours (h) of induction and lysed in 20 mM Tris pH 7.5, 500 mM NaCl, 5 mM imidazole, 5% glycerol, protease inhibitor cocktail (-EDTA) and 2 mM β-ME. Insoluble material was removed by centrifugation at 40,000×g for 1 hr. Clarified homogenate was applied on a Ni-NTA column and after applying an imidazole gradient the protein was eluted. The protein was further purified on size exclusion chromatography to an apparent homogeneity of 95% as judged by SDS-PAGE chromatography.
Binding affinities of compounds were determined by screening against the ligand binding domain of ERR-α using ThermoFluor® technology (U.S. Pat. No. 6,020,141 and U.S. Pat. No. 6,036,920, and Journal of Biomolecular Screening 6 (6), […], pgs 429-440). Assay plates were prepared by dispensing 2 μL of a protein-dye solution and 2 μL of the test compound in a 384-well plate. The conditions used in the screen were: 0.1 mg/mL ERR-α, 25 mM Na-phosphate buffer at pH 7.6, 200 mM NaCl, 10% glycerol, 16 μM ANS, 2% DMSO and the final concentration of test compound was 100 μM. Finally 1 μL of mineral oil was dispensed on top to prevent evaporation during the high throughput screen (HTS). ThermoFluor® is an HTS assay that measures protein unfolding based on fluorescence detection of the denatured form of the protein. The reporter for the protein unfolding event is the environmentally sensitive dye ANS that is incorporated in the screening buffer. During a typical experiment the 384-well plate is heated at a ramping rate of 1° C./min and the thermal unfolding of the protein is monitored at 1° C. intervals by measuring fluorescence changes detected through a CCD camera. Captured images are integrated and a melting curve is generated that relates fluorescence to fraction of unfolded protein as a function of temperature. For the ERR-α screen, data were collected from 30 to 80° C. at 1° C. intervals and the protein melted under the screening conditions with a characteristic melting temperature, Tm, of 52.1° C. Hits were identified from the screen by measuring an increase in the melting temperature of the protein.
In order to estimate binding affinities, it was taken into account that the oligomeric state of ERR-α, which is a dimer (N2), and that of a single ligand (Lf) can interact per monomer subunit with equal affinity. The melting curve for such a system is described by the following three equilibria: [formula] The first equilibrium describes the denaturation of ERR-α dimers; the second equilibrium describes the dissociation of the first ligand from the single ligand occupied ERR-α dimers (N2L); and the third equilibrium describes the dissociation of the second ligand from the fully occupied ERR-α dimers (N2L2).
Following the derivations of Brandts and Lin (Biochemistry, 29, 6967, 1990) the dissociation constants for the ligands (Kd1^t^m) can be determined at T=Tm for any ligand concentration Lt by solving numerically the conservation of mass equations: [formula] and Ku is in the unfolding equilibrium constant for ERR-α dimers that is calculated from the melting curve of the protein in the absence of ligand as described by Pantoliano et al. (J. Biomolecular Screening, 6, 429, 2001) and Bowie & Sauer (Biochemistry, 28, 7139, 1989).
To compare dissociation constants at a common reference temperature, Tref, the following equation was used: [formula] where • Kd^ref=is the dissociation constant of the ligand at a reference temperature Tref • ΔHb^ref=is the binding enthalpy of the ligand to the protein at a reference temperature Tref. […]

The term IC50 denotes the concentration that gives 50% inhibition. For orientation: Kd means a measure of binding affinity in units of concentration. Turning to `COc1cc(/C=C(\C#N)c2nn(-c3ccccc3)c(N)c2C#N)ccc1Oc1ccc(C(F)(F)F)cc1[N+](=O)[O-]` [Example 1, 5-Amino-3-{1-cyano-2-[3-methoxy-4-(2-nitro-4-trifluoromethyl-phenoxy)-phenyl]vinyl}-1-phenyl-1H-pyrazole-4-carbonitrile], the 50% inhibitory concentration (IC50) on ERR-α is 6070 nM. Besides, in experiment [1], the Kd is 6070 nM.
On ERR-α, `N#C/C(=C\c1ccc(Oc2ccc(C(F)(F)F)cc2[N+](=O)[O-])cc1)c1nn(-c2ccccc2)c(N)c1C#N` [Example 2, 5-Amino-3-{1-cyano-2-[4-(2-nitro-4-trifluoromethyl-phenoxy)-phenyl]-vinyl}-1-phenyl-1H-pyrazole-4-carbonitrile] had an IC50 of 7780 nM. Further, the dissociation constant Kd in experiment [1] was 7780 nM.
On ERR-α, `COc1cc(/C=C(\C#N)c2nn(-c3ccccc3)c(N)c2C#N)ccc1Oc1ccc([N+](=O)[O-])c(C(F)(F)F)c1` [Example 3, 5-Amino-3-{1-cyano-2-[3-methoxy-4-(4-nitro-3-trifluoromethyl-phenoxy)-phenyl]-vinyl}-1-phenyl-1H-pyrazole-4-carbonitrile] had a concentration for half-maximal inhibition (IC50) of 1710 nM. The equilibrium dissociation constant (Kd) in experiment [1] was 1710 nM.
On to `COc1cc(/C=C(\C#N)c2nn(-c3ccccc3)c(N)c2C#N)ccc1Oc1ccc(C#N)c(C(F)(F)F)c1` [Example 4, 5-Amino-3-{1-cyano-2-[4-(4-cyano-3-trifluoromethyl-phenoxy)-3-methoxy-phenyl]-vinyl}-1-phenyl-1H-pyrazole-4-carbonitrile], for which the half-inhibitory concentration (IC50) at ERR-α stood at 1430 nM. For the same compound, the Kd in experiment [1] is 1430 nM.
In the case of `N#C/C(=C\c1ccc(Oc2ccccc2)cc1)c1nn(-c2ccccc2)c(N)c1C#N` [Example 5, 5-Amino-3-[1-cyano-2-(4-phenoxy-phenyl)-vinyl]-1-phenyl-1H-pyrazole-4-carbonitrile], the IC50 against ERR-α was found to be 26000 nM. In addition, the equilibrium dissociation constant (Kd) in experiment [1] was 26000 nM.
Turning to `COc1cc(/C=C2\SC(N)=NC2=O)ccc1Oc1ccc(C(F)(F)F)cc1[N+](=O)[O-]` [Example 7, 2-Amino-5-[3-methoxy-4-(2-nitro-4-trifluoromethyl-phenoxy)-benzylidene]-thiazol-4-one], the midpoint of inhibition on ERR-α, the IC50, lay at 500 nM. Also, in experiment [1], the Kd was 359 nM.
For the compound `COc1cc(/C=C2\SC(N)=NC2=O)ccc1Oc1ccc(C#N)c(C(F)(F)F)c1` [Example 8, 4-[4-(2-Amino-4-oxo-4H-thiazol-5-ylidenemethyl)-2-methoxy-phenoxy]-2-trifluoromethyl-benzonitrile], half-maximal inhibition on ERR-α (IC50) required 140 nM. The equilibrium dissociation constant (Kd) in experiment [1] was 473 nM.
`COc1cc(/C=C2\SC(=O)NC2=O)ccc1Oc1ccc([N+](=O)[O-])c(C(F)(F)F)c1` [Example 11, 5-[3-Methoxy-4-(4-nitro-3-trifluoromethyl-phenoxy)-benzylidene]-thiazolidine-2,4-dione]: 1000 nM corresponded to half-maximal inhibition against ERR-α (IC50). Moreover, in experiment [1], the equilibrium dissociation constant (Kd) was 529 nM.
Consider `COc1cc(/C=C2\SC(=O)NC2=O)ccc1Oc1ccc(C#N)c(C(F)(F)F)c1` [Example 12, 4-[4-(2,4-Dioxo-thiazolidin-5-ylidenemethyl)-2-methoxy-phenoxy]-2-trifluoromethyl-benzonitrile], for which the IC50 against ERR-α was determined as 50 nM. Further, the Kd in experiment [1] is 463 nM.
In the same order, the values of `COC(=O)c1ccc(Oc2ccc(/C=C3\SC(=O)NC3=O)cc2OC)cc1C(F)(F)F` [Example 15, 4-[4-(2,4-Dioxo-thiazolidin-5-ylidenemethyl)-2-methoxy-phenoxy]-2-trifluoromethyl-benzoic acid methyl ester] are 1500 nM and 114 nM.
As to `COc1cc(C=C2C(=O)c3ccccc3C2=O)ccc1OCc1cccc(F)c1` [Example 40, 2-[4-(3-Fluoro-benzyloxy)-3-methoxy-benzylidene]-indan-1,3-dione], the Kd in experiment [1] was 17700 nM.
